Experimental data: patent US12344610B2, “APOL1 inhibitors and methods of use” (Maze Therapeutics, Inc., priority 2022, dated 2025)

Columns and labels:
Format in all cases: cell-based
[1] = tested on: HEK293 clonal cell line overexpressing APOL1 G1; assay: APOL1 G1 HEK293 cell rescue assay (Example B3); settings: Homo sapiens, HEK293, HEK293 clonal line overexpressing APOL1 G1; geometric mean of at least 2 runs; † = single run; ¥ = concentration at 50% rescue estimated (no sigmoidal curve)
How it was run: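 Rescue of cell death caused by APOL1 G1 overexpression was measured in a clonal HEK293 line. Compounds were tested in duplicate on one plate, and EC50s were geometric means across at least two runs on different days. Some values are estimated 50%-rescue concentrations where curve fitting failed.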

[2] = tested on: Trypanosoma brucei Lister 427 VSG221 with APOL1 G0 recombinant protein; assay: APOL1 G0 trypanosome cell rescue assay (Example B5); settings: Trypanosoma brucei, 20 h, read-out: APOL1 G0 Trypanosome Rescue EC50, Trypanosoma brucei Lister 427 VSG221 with APOL1 G0 recombinant protein, 20 hours, CellTiter-Glo; geometric mean of at least 2 assay runs; † = single assay run
How it was run: (§1)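 Recombinant APOL1 protein, dispensed from a 2 μg/mL stock, and 250 T. brucei per well were co-incubated with test compound (0.4% DMSO) for 20 h. Viability: CellTiter-Glo luminescence.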

[3] = tested on: Trypanosoma brucei Lister 427 VSG221 with APOL1 G1 recombinant protein; assay: APOL1 G1 trypanosome cell rescue assay (Example B5); settings: Trypanosoma brucei, 20 h, read-out: APOL1 G1 Trypanosome Rescue EC50, Trypanosoma brucei Lister 427 VSG221 with APOL1 G1 recombinant protein, 20 hours, CellTiter-Glo; geometric mean of at least 2 assay runs; † = single assay run
How it was run: as §1

[4] = tested on: Trypanosoma brucei Lister 427 VSG221 with APOL1 G2 recombinant protein; assay: APOL1 G2 trypanosome cell rescue assay (Example B5); settings: Trypanosoma brucei, 20 h, read-out: APOL1 G2 Trypanosome Rescue EC50, Trypanosoma brucei Lister 427 VSG221 with APOL1 G2 recombinant protein, 20 hours, CellTiter-Glo; geometric mean of at least 2 assay runs; † = single assay run
How it was run: as §1

SMILES	EC50 [1] [nM]	EC50 [2] [nM]	EC50 [3] [nM]	EC50 [4] [nM]
CC1(S(=O)(=O)c2ccc(OCCN3CCC4(CC3)C(=O)Nc3ccc(Cl)cc34)cn2)COC1 [Compound 158, 5-chloro-1′-[2-({6-[(3-methyloxetan-3-yl)sulfonyl]pyridin-3-yl}oxy)ethyl]-1,2-dihydrospiro[indole-3,4′-piperidin]-2-one]	252	94.2	142	45.9
N#Cc1ccc2c(c1)C1(CCN(CCOc3ccc(S(=O)(=O)C(F)F)cc3)CC1)C(=O)N2 [Compound 113, 1′-[2-(4-difluoromethanesulfonylphenoxy)ethyl]-2-oxo-1,2-dihydrospiro[indole-3,4′-piperidine]-5-carbonitrile]	176	124	154	46.7
Cn1c(=O)oc2cc(OCCN3CCC4(CC3)C(=O)Nc3ccc(C#N)cc34)ccc21 [Compound 132, 1′-{2-[(3-methyl-2-oxo-2,3-dihydro-1,3-benzoxazol-6-yl)oxy]ethyl}-2-oxo-1,2-dihydrospiro[indole-3,4′-piperidine]-5-carbonitrile]	685	525	731	180
C[C@@H](CN1CCC2(CC1)C(=O)Nc1ccccc12)Oc1ccc(S(C)(=O)=O)cc1 (single isomer, unassigned) [Compound 13]	> 30000	> 4000	> 4000	> 4000
CS(=O)(=O)C1(c2ccc(OCCN3CCC4(CC3)C(=O)N(CC(F)(F)F)c3ccc(C#N)cc34)cc2)COC1 [Compound 184, 1′-{2-[4-(3-methanesulfonyloxetan-3-yl)phenoxy]ethyl}-2-oxo-1-(2,2,2-trifluoroethyl)-1,2-dihydrospiro[indole-3,4′-piperidine]-5-carbonitrile]	~2500	1600	2080	585
CC(c1c(F)cc(OCCN2CCC3(CC2)C(=O)Nc2ccc(C#N)cc23)cc1F)S(C)(=O)=O (single isomer, unassigned) [Compound 138, (S) or (R)-1′-{2-[3,5-difluoro-4-(1-methanesulfonylethyl)phenoxy]ethyl}-2-oxo-1,2-dihydrospiro[indole-3,4′-piperidine]-5-carbonitrile]	253	326	585	165
O=C1Nc2ccc(Cl)cc2C12CCN(CCOc1ccc3c(cnn3C3COC3)c1)CC2 [Compound 15, 5-chloro-1′-(2-{[1-(oxetan-3-yl)-1H-indazol-5-yl]oxy}ethyl)-1,2-dihydrospiro[indole-3,4′-piperidin]-2-one]	279	336	342	124
CN=S(C)(=O)c1ccc(OCCN2CCC3(CC2)C(=O)Nc2ccc(Cl)cc23)cc1 (single isomer, unassigned) [Compound 148, (S) or (R)-5-chloro-1′-(2-{4-[methyl(methylimino)oxo-λ^6-sulfanyl]phenoxy}ethyl)-1,2-dihydrospiro[indole-3,4′-piperidin]-2-one]	282	140	201	61.8
CC(c1c(F)cc(OCCN2CCC3(CC2)C(=O)Nc2ccc(Cl)cc23)cc1F)S(C)(=O)=O (single isomer, unassigned) [Compound 142, (S) or (R)-5-chloro-1′-{2-[3,5-difluoro-4-(1-methanesulfonylethyl)phenoxy]ethyl}-1,2-dihydrospiro[indole-3,4′-piperidin]-2-one]	192	63.5	98.3	35.3
CS(=O)(=O)c1ccc(OCCN2CCC3(CC2)C(=O)Nc2ccc(Cl)cc23)cc1C(F)(F)F [Compound 108, 5-chloro-1′-{2-[4-methanesulfonyl-3-(trifluoromethyl)phenoxy]ethyl}-1,2-dihydrospiro[indole-3,4′-piperidin]-2-one]	49.7	23.3	30.7	9.22
